According to US20240002458A1, “NOVEL VHL SMALL MOLECULE PROBES” (St. Jude Children's Research Hospital, priority 2020, published 2024):

Tests used:
GST-VCB protein complex [1] = biological target: T1, GST-VCB protein complex (Homo sapiens, UniProt P40337); assay: BODIPY FL VH032 (5)-mediated pVHL FP binding assay (competition); settings: for pVHL inhibitory activity in the FP assay: 2.1 pM to 30 μM
Procedure: It was freshly prepared every time before an experiment. […] The FP signals were determined at the 90-min incubation time. […] The FP signals or the FP signal fold changes were plotted with the GraphPad Prism software. […] The FP Ki values were used to compare the relative binding affinities of the test ligands to pVHL.

GST-VCB protein complex [2] = biological target: T1, GST-VCB protein complex; assay: BODIPY FL VH032 (5)-mediated pVHL TR-FRET binding assay (competition); settings: for pVHL inhibitory activity in the TR-FRET binding assay: 2.1 pM to 30 μM; for pVHL inhibitory activity in the TR-FRET binding assay / IC50 / Ki: 90-min incubation; for IC50 / Ki: 4 nM BODIPY FL VH032 (5), 2 nM Tb-anti-GST; for Ki: read-out: Ki, pVHL TR-FRET binding assay (Cheng-Prusoff)
VCB = VCB (Homo sapiens, UniProt P40337); settings: 10 nM FAM-HIF-1α, 15 nM VCB; read-out: Kd, reported FAM-HIF-1α peptide (19-mer)-based FP assay; cited from earlier work
GST-VCB protein complex [3] = biological target: T1, GST-VCB protein complex; assay: Determination of BODIPY FL VH032 (5) binding Kd to GST-VCB protein complex in a TR-FRET binding assay; settings: for Kd: 2 nM GST-VCB
Description: For the BODIPY FL VH032 (5)-mediated pVHL TR-FRET binding assay, a reported TR-FRET assay protocol (Lin, et al. (2014) Development of BODIPY FL vindoline as a novel and high-affinity pregnane X receptor fluorescent probe. Bioconjug Chem 25, 1664-1677) was followed except that an Echo 555 Acoustic Liquid Handler (Labcyte Inc., San Jose, CA) was used to dispense chemicals and BODIPY FL VH032 (5), GST-VCB and Tb-anti-GST antibody were used.
The pVHL TR-FRET binding assay buffer has a formula of 50 mM Tris pH 7.5, 0.1% Triton X-100, 0.01% bovine serum albumin, 1 mM DTT. It was freshly prepared every time before an experiment.
Dilutions of BODIPY FL VH032 (5, 1-to-2 dilutions, a concentration range of 0.06 nM to 500 nM) was incubated with 2 nM Tb-anti-GST along with, group 1: 2 nM GST-VCB+DMSO; group 2: 2 nM GST-VCB+VH298 (2, 30 μM); or group 3: without GST-VCB+DMSO. The TR-FRET signals were monitored every 30 min from 30 min to 300 min with a PHERAstar FS plate reader equipped with a TR-FRET optic module (excitation: 340 nm; emission 1: 520 nm; emission 2: 490 nm). The TR-FRET signals were fitted into GraphPad Prism 8.4.3 software (GraphPad Software; San Diego, CA) using a one-site total binding equation to derive curves for each group.

GST-VCB protein complex [4] = biological target: T1, GST-VCB protein complex; assay: Determination of BODIPY FL VH032 (5) binding Kd to GST-VCB protein complex in a FP binding assay; settings: VH298 30 μM, 1000 nM GST-VCB, 10 nM probe
Procedure: For the BODIPY FL VH032 (5)-mediated pVHL FP binding assay, the general TR-FRET assay protocol was followed except that the […] antibody was not added and the PHERAstar FS plate reader (BMG Labtech; Durham, NC) was equipped with a FP optic module (Excitation: 485 nm, Emission: 520 nm) to read FP assay signals.
The pVHL FP assay buffer has a formula of 25 mM HEPES pH 7.4, 0.01% Tween-20, 0.5 mM DTT, 0.01% BSA. It was freshly prepared every time before an experiment.
BODIPY FL VH032 (5, 10 nM) was incubated with dilutions of GST-VCB (1-to-2 dilutions, a concentration range of 0.03 nM to 1 μM) along with the DMSO group or VH298 (2, 30 μM) group. In addition, BODIPY FL VH032 (5, 10 nM) was incubated with DMSO only, but without GST-VCB. The FP signals were determined with the PHERAstar FS plate reader. The representative data collected at 90-min incubation time was plotted with the GraphPad Prism software using a one-site total binding equation to derive curves for each group. The binding affinity Kd values were derived from the DMSO with GST-VCB.

Structure (SMILES): NCCCCNC(=O)COc1cccc2c1C(=O)N(C1CCC(=O)NC1=O)C2=O (stereo not drawn)
- pVHL inhibitory activity in the FP assay (GST-VCB protein complex [1]; 90-min incubation): did not show pVHL inhibitory activity
- pVHL inhibitory activity in the TR-FRET binding assay (GST-VCB protein complex [2]): inactive

Structure (SMILES): Cc1ncsc1-c1ccc(CNC(=O)[C@@H]2C[C@@H](O)CN2C(=O)[C@@H](NC(=O)OC(C)(C)C)C(C)(C)C)cc1 [BOC-VH032 (8)]
- IC50 (GST-VCB protein complex [1]; 10 nM BODIPY FL VH032 (5), 100 nM GST-VCB, 90-min incubation): 16300 nM
- Ki (GST-VCB protein complex [1]; 10 nM BODIPY FL VH032 (5), 100 nM GST-VCB, 90-min incubation, read-out: Ki, pVHL FP assay (Nikolovska-Coleska method)): 8000 nM
- IC50 (GST-VCB protein complex [2]; 2 nM GST-VCB): 4900 nM
- Ki (GST-VCB protein complex [2]; 2 nM GST-VCB): 2100 nM
- Kd (VCB): 6500 nM

Structure (SMILES): CC1=CC(C)=[N+]2C1=Cc1ccc(CCC(=O)NCCOCCOCCOCCOCC(=O)NC(C(=O)N3CC(O)CC3C(=O)NCc3ccc(-c4scnc4C)cc3)C(C)(C)C)n1[B-]2(F)F [BODIPY FL VH032 (5), (2S,4R)-1-4S)-2-(tert-butyl)-21-(5,5-difluoro-7,9-Dimethyl-5H-5Λ^4,6Λ^4-dipyrrolo[1,2-c:2′,1′-f][1,3,2]diazaborinin-3-yl)-4,19-dioxo-6,9,12,15-tetraoxa-3,18-diazahenicosanoyl)-4-hydroxy-N-(4-O-methylthiazol-5-yl)benzyl)pyrrolidine-2-carboxamide]
- Kd (GST-VCB protein complex [3]; 90-min incubation, 2 nM Tb-anti-GST): 3.01 nM
- Kd (GST-VCB protein complex [3]; 120-min incubation): 3.04 nM
- Kd (GST-VCB protein complex [3]; 150-min incubation): 3.01 nM
- Kd (GST-VCB protein complex [3]; 180-min incubation): 2.98 nM
- Kd (GST-VCB protein complex [3]; 240-min incubation): 2.98 nM
- Kd (GST-VCB protein complex [3]; 300-min incubation): 3.04 nM
- highest TR-FRET signal fold change, 2 nM GST-VCB+DMSO / without GST-VCB+DMSO (GST-VCB protein complex [3]; at 3.9 nM BODIPY FL VH032 (5), 90 min): 16.2 fold
- highest TR-FRET signal fold change, 2 nM GST-VCB+DMSO / 2 nM GST-VCB+VH-298 (2) (GST-VCB protein complex [3]; at 7.8 nM BODIPY FL VH032 (5), 90 min): 15.1 fold

Structure (SMILES): Cc1ncsc1-c1ccc([C@H](C)NC(=O)[C@@H]2C[C@@H](O)CN2C(=O)[C@@H](N)C(C)(C)C)cc1 [Me-VH032 amine (7)]
- concentration at which the compound disturbed the FP assay detection (assay interference) (GST-VCB protein complex [1]; FP assay, not observed in TR-FRET): ≥ 370 nM
- IC50 (GST-VCB protein complex [2]; 2 nM GST-VCB): 7900 nM
- Ki (GST-VCB protein complex [2]; 2 nM GST-VCB): 3400 nM

Structure (SMILES): Cc1ncsc1-c1ccc(CNC(=O)[C@@H]2C[C@@H](O)CN2C(=O)[C@@H](NC(=O)COCCOCCOCCOCCN)C(C)(C)C)cc1 [VH032-PEG4-amine (10)]
- IC50 (GST-VCB protein complex [2]; 2 nM GST-VCB): 5.9 nM

Structure (SMILES): Cc1ncsc1-c1ccc(CNC(=O)[C@@H]2C[C@@H](O)CN2C(=O)[C@@H](NC(=O)C2(C#N)CC2)C(C)(C)C)cc1 [VH298 (2), (2S,4R)-1-((S)-2-(1-Cyanocyclopropanecarboxamido)-3,3-dimethylbutanoyl)-4-hydroxy-N-(4-(4-methylthiazol-5-yl)benzyl)pyrrolidine-2-carboxamide]
- FP signal of the positive control (GST-VCB protein complex [1]; VH298 30 μM, 10 nM probe, 100 nM GST-VCB, 90 min): 14.5 mP
- TR-FRET signal of the positive control group (GST-VCB protein complex [2]; VH298 30 μM, 2 nM GST-VCB, 4 nM probe, all incubation times 30 to 300 min): 278.7±4.5 RTU
- FP signal, GST-VCB-mediated non-specific interaction (GST-VCB protein complex [4]): 43.0 mP

Structure (SMILES): Cc1sc2c(c1C)C(c1ccc(Cl)cc1)=N[C@@H](CC(=O)NCCCCNC(=O)COc1cccc3c1C(=O)N(C1CCC(=O)NC1=O)C3=O)c1nnc(C)n1-2 (stereo partly drawn) [dBET1 (12)]
- pVHL inhibitory activity in the FP assay (GST-VCB protein complex [1]; 90-min incubation): did not show pVHL inhibitory activity
- pVHL inhibitory activity in the TR-FRET binding assay (GST-VCB protein complex [2]): inactive
